Assay results published in article PMC9919951, “Ellagic Acid and Its Metabolites as Potent and Selective Allosteric Inhibitors of Liver Pyruvate Kinase” (Nutrients, 2023).
“Also recorded” adds a separate entry of the source. Values belong to the compound of their own block, whether it stands above or below them.

What was measured:
[1] = molecular target: T1, PKL (Homo sapiens, UniProt P30613); assay: In vitro pyruvate kinase assay (Kinase-Glo Max luminescence), PKL; format: biochemical; settings: for PKL IC50: 0.1 mM ADP, 0.125 mM PEP, rt 30 min, Inactive = less than 30% inhibition at 10 µM; for Change of PKL inhibitory activity relative to Uro D (5): removal of one hydroxyl group from 5
T1 construct: purchased BPS Bioscience
Excerpt: (§1) In the absence of the compound, the intensity (Ce) in each data set was defined as 100% activity.

[2] = molecular target: T2, PKR (Homo sapiens, UniProt P30613); assay: In vitro pyruvate kinase assay (Kinase-Glo Max luminescence), PKR; format: biochemical; settings: for PKR IC50: 0.1 mM ADP, 0.125 mM PEP, rt 30 min, Inactive = less than 30% inhibition at 10 µM
T2 construct: purchased BPS Bioscience
Excerpt: as §1

[3] = molecular target: PKM1 (Homo sapiens, UniProt P14618); assay: In vitro pyruvate kinase assay, PKM1; format: biochemical
Excerpt: as §1

[4] = molecular target: PKM2 (Homo sapiens, UniProt P14618); assay: In vitro pyruvate kinase assay, PKM2; format: biochemical; settings: printed in the PKM2 IC50 column; footnote a: value refers to EC50; read-out: PKM2 EC50 (compound behaves as an activator)
Excerpt: as §1

T1 sequence (P30613 1-543 isoform P30613-2): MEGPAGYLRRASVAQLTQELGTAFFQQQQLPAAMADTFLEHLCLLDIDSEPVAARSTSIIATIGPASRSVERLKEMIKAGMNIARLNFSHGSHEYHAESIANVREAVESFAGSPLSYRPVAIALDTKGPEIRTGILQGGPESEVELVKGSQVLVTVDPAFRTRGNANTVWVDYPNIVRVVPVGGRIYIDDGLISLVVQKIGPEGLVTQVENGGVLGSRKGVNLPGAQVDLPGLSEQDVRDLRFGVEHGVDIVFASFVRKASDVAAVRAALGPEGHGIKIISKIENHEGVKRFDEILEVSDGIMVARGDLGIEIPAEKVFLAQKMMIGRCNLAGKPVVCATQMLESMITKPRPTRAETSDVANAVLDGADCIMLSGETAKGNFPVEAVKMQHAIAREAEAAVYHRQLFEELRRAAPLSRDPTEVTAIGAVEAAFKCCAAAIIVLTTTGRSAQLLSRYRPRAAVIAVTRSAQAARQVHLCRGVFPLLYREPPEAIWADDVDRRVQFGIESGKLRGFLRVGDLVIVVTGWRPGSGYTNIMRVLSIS
Sequence of PKM2 (P14618 whole entry): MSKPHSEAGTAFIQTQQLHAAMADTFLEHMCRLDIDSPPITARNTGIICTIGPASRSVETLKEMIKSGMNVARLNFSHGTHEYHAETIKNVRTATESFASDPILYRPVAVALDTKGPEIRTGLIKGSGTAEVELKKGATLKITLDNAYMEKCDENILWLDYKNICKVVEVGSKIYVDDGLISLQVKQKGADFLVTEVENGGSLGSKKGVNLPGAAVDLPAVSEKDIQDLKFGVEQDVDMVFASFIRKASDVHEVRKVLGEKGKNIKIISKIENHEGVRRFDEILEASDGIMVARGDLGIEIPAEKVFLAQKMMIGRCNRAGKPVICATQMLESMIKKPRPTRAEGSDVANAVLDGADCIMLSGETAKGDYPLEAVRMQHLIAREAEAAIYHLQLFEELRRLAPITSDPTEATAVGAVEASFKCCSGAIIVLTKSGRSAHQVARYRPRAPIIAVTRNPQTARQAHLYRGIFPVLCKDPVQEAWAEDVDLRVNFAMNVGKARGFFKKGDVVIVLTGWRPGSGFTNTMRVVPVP
T2 sequence (P30613 whole entry): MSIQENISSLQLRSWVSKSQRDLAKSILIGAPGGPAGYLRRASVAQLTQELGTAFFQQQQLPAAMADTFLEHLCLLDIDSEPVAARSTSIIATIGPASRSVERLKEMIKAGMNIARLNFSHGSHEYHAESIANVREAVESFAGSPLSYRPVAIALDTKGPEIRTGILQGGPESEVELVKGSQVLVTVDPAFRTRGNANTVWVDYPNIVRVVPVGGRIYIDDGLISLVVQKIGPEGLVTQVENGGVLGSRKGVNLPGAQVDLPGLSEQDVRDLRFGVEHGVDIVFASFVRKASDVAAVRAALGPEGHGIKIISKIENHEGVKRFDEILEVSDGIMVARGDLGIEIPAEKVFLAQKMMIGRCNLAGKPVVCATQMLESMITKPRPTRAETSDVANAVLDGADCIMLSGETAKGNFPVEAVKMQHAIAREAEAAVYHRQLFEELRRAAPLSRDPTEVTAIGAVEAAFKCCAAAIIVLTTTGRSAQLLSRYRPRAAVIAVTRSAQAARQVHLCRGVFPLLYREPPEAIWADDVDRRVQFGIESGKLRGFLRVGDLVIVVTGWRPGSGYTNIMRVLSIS
Sequence of PKM1 (P14618 1-531 isoform P14618-2): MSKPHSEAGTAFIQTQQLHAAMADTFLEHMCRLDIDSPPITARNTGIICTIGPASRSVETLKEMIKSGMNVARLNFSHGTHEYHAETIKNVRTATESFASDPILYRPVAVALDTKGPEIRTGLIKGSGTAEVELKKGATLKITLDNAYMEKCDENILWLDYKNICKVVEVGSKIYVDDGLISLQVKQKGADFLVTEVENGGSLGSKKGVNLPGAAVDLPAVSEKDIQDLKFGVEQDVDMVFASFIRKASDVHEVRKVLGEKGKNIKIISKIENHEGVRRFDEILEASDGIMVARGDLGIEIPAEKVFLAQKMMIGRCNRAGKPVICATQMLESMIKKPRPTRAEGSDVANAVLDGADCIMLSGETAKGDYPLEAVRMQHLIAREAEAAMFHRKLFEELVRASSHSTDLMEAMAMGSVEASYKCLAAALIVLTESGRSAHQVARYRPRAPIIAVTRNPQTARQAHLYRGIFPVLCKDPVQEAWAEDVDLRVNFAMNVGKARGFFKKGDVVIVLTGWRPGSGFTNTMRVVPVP

PKR IC50 [2]: Inactive ^b
Structure (SMILES): O=c1oc2cc(O)ccc2c2ccc(O)cc12 [Compound 11, Urolithin A]
PKL IC50 [1]: no inhibition was observed; also recorded: Inactive ^b

PKR IC50 [2]: Inactive ^b
Structure (SMILES): O=c1oc2cc(O)ccc2c2ccccc12 [Compound 12, Urolithin B]
PKL IC50 [1]: no inhibition was observed; also recorded: Inactive ^b

IC50 [1]: 3900 nM | Change of PKL inhibitory activity relative to Uro D (5) [1]: hundred-fold reduction in activity | IC50 [2]: 43000 nM | melting point: 345 to 347 °C
Structure (SMILES): O=c1oc2c(O)cccc2c2cc(O)c(O)cc12 [Compound 13, 4,8,9-Trihydroxy-6H-benzo[c]chromen-6-one]

IC50 [1]: 2100 nM | IC50 [2]: 68000 nM
Structure (SMILES): O=c1oc2c(O)c(O)ccc2c2cc(O)ccc12 [Compound 14, 3,4,9-Trihydroxy-6H-benzo[c]chromen-6-one]

IC50 [1]: 1700 nM | Change of PKL inhibitory activity relative to Uro D (5) [1]: dramatically reduced inhibitory activity | IC50 [2]: > 100000 nM
Structure (SMILES): O=c1oc2c(O)c(O)ccc2c2ccc(O)cc12 [Compound 15, 3,4,8-Trihydroxy-6H-benzo[c]chromen-6-one]

EC50 ([1]; printed in the PKL IC50 column, footnote a: value refers to EC50, read-out: PKL EC50 (compound behaves as an activator)): 20 nM | EC50 ([2]; printed in the PKR IC50 column, footnote a: value refers to EC50, read-out: PKR EC50 (compound behaves as an activator)): 10 nM | PKM1 IC50 [3]: Inactive | EC50 [4]: 50 nM
Structure (SMILES): O=C(COP(=O)(O)O)[C@@H](O)[C@H](O)[C@H](O)COP(=O)(O)O [FBP, Fructose-1,6-biphosphate, reference compound]

More lines, now with the values behind:

Structure (SMILES): O=c1oc2c(O)c(O)cc3c(=O)oc4c(O)c(O)cc1c4c23 [Compound 1, ellagic acid]
IC50 [1]: 32 nM | Mode of PKL inhibition ([1]; different concentrations of ADP, activity independent of substrate concentration): non-competitive allosteric inhibitor | IC50 [2]: 4700 nM | IC50 [3]: 81000 nM | EC50 [4]: 70 nM

Structure (SMILES): O=c1cc(-c2ccc(O)c(O)c2)oc2cc(O)cc(O)c12 [Compound 2, luteolin]
IC50 [1]: 12000 nM | IC50 [2]: > 100000 nM

Structure (SMILES): Oc1cc(O)c2cc(O)c(-c3ccc(O)c(O)c3)[o+]c2c1 [Compound 3, cyanidin]
IC50 [1]: 2100 nM | IC50 [2]: 7400 nM

Structure (SMILES): O=c1oc2c(O)c(O)ccc2c2cc(O)c(O)cc12 [Compound 5, urolithin D]
IC50 [1]: 28 nM | IC50 [2]: 1270 nM | IC50 [3]: 36000 nM | EC50 [4]: 30 nM

Structure (SMILES): O=c1occc2cc(O)c(O)cc12 [Compound 6, 6,7-dihydroxy-1H-isochromen-1-one]
PKL IC50 [1]: Inactive ^b | PKR IC50 [2]: Inactive ^b | melting point: 265 to 267 °C

Structure (SMILES): O=c1ccc2ccc(O)c(O)c2o1 [Compound 7]
PKL IC50 [1]: Inactive ^b | PKR IC50 [2]: Inactive ^b

Structure (SMILES): Oc1ccc(-c2ccc(O)c(O)c2O)c(O)c1O [Compound 8, [1,1’-Biphenyl]-2,2’,3,3’,4,4’-hexaol]
IC50 [1]: 3500 nM | IC50 [2]: 12000 nM | melting point: > 350 °C

Structure (SMILES): Oc1ccc(-c2ccc(O)c(O)c2)cc1O [Compound 9, [1,1’-biphenyl]-3,3’,4,4’-tetraol]
IC50 [1]: 2400 nM | IC50 [2]: 5100 nM

Structure (SMILES): O=c1oc2cc(O)ccc2c2cc(O)c(O)cc12 [Compound 10, 3,8,9-trihydroxy-6H-benzo[c]chromen-6-one]
IC50 [1]: 410 nM | Change of PKL inhibitory activity relative to Uro D (5) [1]: reduced by approximately one order of magnitude | IC50 [2]: 2600 nM
